According to patent US5843916A, “Cyclic amp analogues, individually and in pairs, to inhibit neoplastic cell growth” (priority 1994, dated 1998):
Where two headings read alike, the source gives them in different places.

Columns and labels:
[1] = system: LS-174T human colon carcinoma cells; assay: Additive growth inhibition with 8-Cl-cAMP (Table 19); format: cell-based; details: Homo sapiens, LS174T, 96 h; 1 μM; 4 days
Protocol: The medium was changed every 48 hours.
At desired times, cell counts were performed in duplicate on a Coulter Counter after harvesting cells with gentle trypsinization.
The analogues were added at 24

[2] = target: T1, Protein kinase type I (cAKI) (Oryctolagus cuniculus, UniProt G1TDN4); assay: Protein kinase activation (Table 15); format: biochemical, rabbit (skeletal muscle); details: half-maximum activation; U. M.: unmeasurable
T1 construct: prepared from rabbit skeletal muscle and bovine heart; from tissue; host or cells: rabbit skeletal muscle
Protocol: ATP to Kemptide as described by Ogreid et al., Eur. J. Biochem. 150: 219-227 (1985).
Protein kinases types I (cAKI) and II (cAKII) were
prepared from rabbit skeletal muscle and bovine heart,
respectively, as described in D.o slashed.skeland et al. (J. Biol.
of the protein kinase in Ogreid et al. (Eur. J. Biochem.

[3] = target: T2, RI, regulatory subunit of cAMP-dependent protein kinase type I (Oryctolagus cuniculus, UniProt G1TDN4); details: cited from earlier work
T2 construct: from tissue

[4] = system: RIα and RIIβ isoforms of the cAMP receptor protein; protein kinase type I and II; details: cited from earlier work
[5] = system: cultured human fibroblasts; details: cited from earlier work
[6] = no test described at this place

T2 sequence (G1TDN4 1-381): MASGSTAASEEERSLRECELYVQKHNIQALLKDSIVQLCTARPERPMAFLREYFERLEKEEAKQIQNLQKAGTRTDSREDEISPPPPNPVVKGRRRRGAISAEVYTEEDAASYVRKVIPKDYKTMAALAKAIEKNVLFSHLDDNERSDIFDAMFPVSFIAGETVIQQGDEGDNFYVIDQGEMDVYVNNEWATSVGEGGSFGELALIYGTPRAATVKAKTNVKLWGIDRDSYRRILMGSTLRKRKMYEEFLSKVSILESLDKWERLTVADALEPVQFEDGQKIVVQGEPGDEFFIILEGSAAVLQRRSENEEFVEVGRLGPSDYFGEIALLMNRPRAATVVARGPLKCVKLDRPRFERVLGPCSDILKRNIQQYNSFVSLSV
T1 sequence (G1TDN4 1-381): as above

Compound	inhibition at 1 µM [1]	Activation Constant (Ka), cAKI [2]	relative affinity Ki (cAMP)/Ki (analogue), RI Site A ([3]; Site A (Site 2), literature)	relative affinity Ki (cAMP)/Ki (analogue), RI Site B ([3]; Site B (Site 1), literature)	site selectivity of binding to RI [3]	effect on protein kinase isozyme type I ([4]; literature)	effect on protein kinase isozyme type II ([4]; literature)	effect on RIIβ isoform [4, 6]	effect on RIα isoform [4, 6]	DNA synthesis ([5]; added during first eight hours after serum addition)	DNA synthesis ([5]; added more than eight hours after serum addition)
Nc1ncnc2c1nc(Cl)n2[C@@H]1O[C@@H]2COP(=O)(O)O[C@H]2[C@H]1O [8-Cl-cAMP, 8-chloro-adenosine 3': 5'-monophosphate]	30%	1.8 × 10^-8	2.71	2.0	binds to site 2 of the RI receptor	drastically downregulates type I protein kinase	upregulating type II protein kinase in its holoenzyme form	upregulates the RII β, isoform	downregulates the RIα isoform		
CCCC(=O)Nc1ncnc2c1ncn2[C@@H]1O[C@@H]2COP(=O)(O)O[C@H]2[C@H]1OC(=O)CCC [DBcAMP, N^6, O^2' -dibutyryl-cAMP, reference compound]										not delayed	inhibitory
